Structures are written as SMILES. Values after ≈ are worked out from the molar mass of the structure shown. Active and inactive are the calls of the source. The rule behind the calls is not given here. Some results are limits rather than exact numbers.

Assay [1] has as its system Staphylococcus aureus. Description: Antibacterial activity against vacomycin-resistant Staphylococcus aureus VRS 12 assessed as reduction in bacterial growth measured after 18 to 24 hrs by broth microdilution method. The assay is classed as functional. Particulars: time 18-24 hrs.
The subject of assay [2] is Pseudomonas aeruginosa. Description: Antibacterial activity against Pseudomonas aeruginosa ATCC 27853 assessed as reduction in bacterial growth measured after 18 to 24 hrs by broth microdilution method. The class given is functional. Particulars: time 18-24 hrs.
Assay [3] relates to Staphylococcus aureus. Description: Inhibition of biofilm in Staphylococcus aureus ATCC 29213 at 2 ug/ml measured after 12 hrs by crystal violet staining based analysis. The class given is functional, organism-based. The settings on record: dose 2.0 µg/ml.
For assay [4], the system named is Staphylococcus aureus. Description: Antibacterial activity against Staphylococcus aureus ATCC 29213 assessed as reduction in bacterial growth measured after 18 to 24 hrs by broth microdilution method. The settings on record: time 18-24 hrs. The assay is classed as functional.
The test system of assay [5] is Staphylococcus aureus. Briefly: Inhibition of biofilm in Staphylococcus aureus ATCC 29213 at 1 times MIC measured after 12 hrs by crystal violet staining based analysis relative to control. The class given is functional.
Assay [6] concerns Staphylococcus aureus. Description: Antibacterial activity against methicillin-resistant Staphylococcus aureus NRS 119 assessed as reduction in bacterial growth measured after 18 to 24 hrs by broth microdilution method. The settings on record: time 18-24 hrs. The class given is functional.
Assay [7] relates to Staphylococcus aureus. Briefly: Antibacterial activity against methicillin-resistant Staphylococcus aureus NRS 193 assessed as reduction in bacterial growth measured after 18 to 24 hrs by broth microdilution method. The class given is functional. Particulars: time 18-24 hrs.
In assay [8] the test system is Acinetobacter baumannii. Briefly: Antibacterial activity against Acinetobacter baumannii BAA 1605 assessed as reduction in bacterial growth measured after 18 to 24 hrs by broth microdilution method. The assay is classed as functional. Particulars: time 18-24 hrs.
Assay [9] has as its system Staphylococcus aureus. Briefly: Antibacterial activity against methicillin-resistant Staphylococcus aureus NRS 198 assessed as reduction in bacterial growth measured after 18 to 24 hrs by broth microdilution method. The class given is functional. The settings on record: time 18-24 hrs.
Assay [10] deals with Staphylococcus aureus. Description: Antibacterial activity against methicillin-resistant Staphylococcus aureus NRS 194 assessed as reduction in bacterial growth measured after 18 to 24 hrs by broth microdilution method. The assay is classed as functional. The settings on record: time 18-24 hrs.
The test system of assay [11] is Staphylococcus aureus. Briefly: Antibacterial activity against methicillin-resistant Staphylococcus aureus NRS 100 assessed as reduction in bacterial growth measured after 18 to 24 hrs by broth microdilution method. The assay is classed as functional. The settings on record: time 18-24 hrs.
The subject of assay [12] is Staphylococcus aureus. Briefly: Antibacterial activity against methicillin-resistant Staphylococcus aureus NRS 186 assessed as reduction in bacterial growth measured after 18 to 24 hrs by broth microdilution method. The assay is classed as functional. The settings on record: time 18-24 hrs.
Assay [13] relates to Enterococcus faecalis. Description: Antibacterial activity against Enterococcus faecalis ATCC 35550 assessed as reduction in bacterial growth measured after 18 to 24 hrs by broth microdilution method. The class given is functional. Particulars: time 18-24 hrs.
Assay [14] deals with Staphylococcus aureus. Description: Antibacterial activity against vacomycin-resistant Staphylococcus aureus VRS 4 assessed as reduction in bacterial growth measured after 18 to 24 hrs by broth microdilution method. Particulars: time 18-24 hrs. The assay is classed as functional.
The test system of assay [15] is Bacillus subtilis. Briefly: Antibacterial activity against Bacillus subtilis IITKSM1 assessed as reduction in bacterial growth measured after 18 to 24 hrs by broth microdilution method. The assay is classed as functional. The settings on record: time 18-24 hrs.
Assay [16] concerns Staphylococcus aureus. Description: Antibacterial activity against methicillin-resistant Staphylococcus aureus NRS 192 assessed as reduction in bacterial growth measured after 18 to 24 hrs by broth microdilution method. The class given is functional. Particulars: time 18-24 hrs.
Assay [17] concerns Staphylococcus aureus. Briefly: Inhibition of biofilm in Staphylococcus aureus ATCC 29213 at 0.5 times MIC measured after 12 hrs by crystal violet staining based analysis relative to control. The assay is classed as functional.
For assay [18], the system named is Escherichia coli. Briefly: Antibacterial activity against Escherichia coli ATCC 25922 assessed as reduction in bacterial growth measured after 18 to 24 hrs by broth microdilution method. The class given is functional. The settings on record: time 18-24 hrs.
Assay [19] relates to Staphylococcus aureus. Description: Antibacterial activity against vacomycin-resistant Staphylococcus aureus VRS 1 assessed as reduction in bacterial growth measured after 18 to 24 hrs by broth microdilution method. The class given is functional. Particulars: time 18-24 hrs.
Assay [20] relates to Staphylococcus aureus. Description: Antibacterial activity against methicillin-sensitive Staphylococcus aureus ATCC 29213 assessed as reduction in bacterial growth measured after 18 to 24 hrs by broth microdilution method. The assay is classed as functional. The settings on record: time 18-24 hrs.
In assay [21] the test system is Klebsiella pneumoniae. Description: Antibacterial activity against Klebsiella pneumoniae BAA 1705 assessed as reduction in bacterial growth measured after 18 to 24 hrs by broth microdilution method. The assay is classed as functional. Particulars: time 18-24 hrs.
Assay [22] concerns Staphylococcus aureus. Briefly: Inhibition of biofilm in Staphylococcus aureus ATCC 29213 at 2 times MIC measured after 12 hrs by crystal violet staining based analysis relative to control. The class given is functional.
In assay [23] the test system is Staphylococcus aureus. Briefly: Antibacterial activity against methicillin-resistant Staphylococcus aureus NRS 129 assessed as reduction in bacterial growth measured after 18 to 24 hrs by broth microdilution method. The assay is classed as functional. The settings on record: time 18-24 hrs.
In assay [24] the test system is Staphylococcus aureus. Briefly: Antibacterial activity against methicillin-resistant Staphylococcus aureus NRS 191 assessed as reduction in bacterial growth measured after 18 to 24 hrs by broth microdilution method. Particulars: time 18-24 hrs. The assay is classed as functional.
Assay [25] concerns Staphylococcus aureus. Briefly: Induction of morphological changes in Staphylococcus aureus ATCC 29213 assessed as cell shrinkage at 10 times MIC measured after 4 hrs by atomic force microscopy based analysis (reference value: 60.170 nanometer). The class given is functional.
The subject of assay [26] is Staphylococcus aureus. Briefly: Bactericidal activity against Staphylococcus aureus ATCC 29213 at 4 to 8 time MIC measured after 8 hrs by time-kill assay. The class given is functional, organism-based.

For `O=C(O)c1cccc(C(=O)Nc2c(C(c3ccccc3)c3ccccc3)cc(Cl)cc2C(c2ccccc2)c2ccccc2)c1`, the minimum inhibitory concentration (MIC) was 4 µg/mL (≈ 6.58 µM) in assay [1]; > 64 µg/mL in [2]; 2 µg/mL (≈ 3.29 µM) in [4]; 4 µg/mL (≈ 6.58 µM) in assay [6]; 8 µg/mL (≈ 13.2 µM) in [7]; > 64 µg/mL in assay [8]. Also, the MIC was found to be 8 µg/mL (≈ 13.2 µM) in assay [9]; 8 µg/mL (≈ 13.2 µM) in assay [10]; 4 µg/mL (≈ 6.58 µM) in [11]; 4 µg/mL (≈ 6.58 µM) in [12]; 1 µg/mL (≈ 1.64 µM) in assay [13]; 4 µg/mL (≈ 6.58 µM) in [14]. Further, the MIC is 2 µg/mL (≈ 3.29 µM) in assay [15]; 4 µg/mL (≈ 6.58 µM) in assay [16]; > 64 µg/mL in [18]; 4 µg/mL (≈ 6.58 µM) in [19]; 4 µg/mL (≈ 6.58 µM) in assay [20]; > 64 µg/mL in assay [21]. In addition, the MIC in assay [23] and in assay [24] was 4 µg/mL (≈ 6.58 µM) throughout. Further, in assay [3], the inhibition entry was “Active”. Moreover, the “inhibition (INH)” value in [5] was 96%; in assay [17] it was >50%; in [22], 95%.
Turning to `CC1(C)S[C@@H]2[C@H](NC(=O)[C@H](N)c3ccccc3)C(=O)N2[C@H]1C(=O)O` [AMPICILLIN], the Activity in assay [25] was 36.075 nm.
`CN[C@H](CC(C)C)C(=O)N[C@H]1C(=O)N[C@@H](CC(N)=O)C(=O)N[C@H]2C(=O)N[C@H]3C(=O)N[C@H](C(=O)N[C@H](C(=O)O)c4cc(O)cc(O)c4-c4cc3ccc4O)[C@H](O)c3ccc(c(Cl)c3)Oc3cc2cc(c3O[C@@H]2O[C@H](CO)[C@@H](O)[C@H](O)[C@H]2O[C@H]2C[C@](C)(N)[C@H](O)[C@H](C)O2)Oc2ccc(cc2Cl)[C@H]1O` [VANCOMYCIN]: the MIC in [1], in assay [14] and in [19] was > 64 µg/mL each time. In assay [26], the result was Active.

(Values after ChEMBL document CHEMBL6177993, “De Novo 3-(Phenylcarbamoyl) Benzoate Analogues: Efficacy against Multidrug-Resistant S. aureus and Elucidation of the Biodistribution Profile” (J Med Chem, 2025).)
